Like-named read-outs stand apart in the source and are kept apart here. Ends that are not written are not given here.
How the values were obtained:
[1] = Cytotoxicity test (MTT method); format: cell-based
Text: (§1) Cytotoxicity test of the interferon-derived polypeptide on human HEK293T cells and grass carp CIK cells:
(§2) The MTT method, also known as the MTT colorimetric method, is a method for measuring cell proliferation and cell survival rate. The detection principle is that the […] in the living cell mitochondria can reduce the exogenous MTT to a water-insoluble blue-purple crystalline Formazan which deposits in the cells, while the dead cells have no such function. DMSO can dissolve Formazan in the cells, and through measuring its absorbance by using an enzyme-linked immunosorbent detector at a wavelength of 492 nm, the number of living cells can be reflected indirectly. Within a certain range of the number of cells, the amount of the formed MTT crystal is proportional to the number of cells.
(§3) (1) Cell preparation: A human HEK293T cell line and grass carp CIK cell line preserved in liquid nitrogen are resuscitated and cultured in DMEM containing 10% fetal bovine serum under the conditions of 37° C./28° C., 5% CO2, and saturated humidity. The culture solution is changed every other day, and the cell passage is carried out by trypsinization. When 80%-90% of the bottom of the flask is covered with cells, the cells are washed twice with PBS, 2 ml of 0.25% trypsin digestive juice is added, and the degree of digestion is observed under an inverted microscope; when most of the cells are rounded and the cells are in loose connection, it indicates moderate digestion and this process is about 3 minutes; the digestion is terminated by adding a DMEM or MEM medium containing fetal bovine serum, the digestive juice is poured off, and about 3 ml of the cell culture solution is added to thoroughly blow the cells to form a single cell suspension. Finally, the diluted cell suspension is added to a 96-well plate, and 50 μl of the diluted cell suspension is added to each well at a concentration of about 1×10^4 cells/well.
(§4) The cell wells without the interferon-derived polypeptide are used as positive control, and the cell well with the interferon-derived polypeptide but without the cells are used as negative control, and the culture is further continued for 24 hours.
(§5) (3) Reading: After culture for a certain period of time, […] (5 mg/ml) of MTT is directly added to each well, and after culture for 4 hours, 150 μl of DMSO is added and vibration is carried out for 10 minutes to dissolve the crystal, and the absorbance is then measured at 492 nm by the enzyme-linked immunosorbent detector. The test is repeated three times.
(§6) Survival rate=(absorbance of experimental group−absorbance of negative group)/(absorbance of positive group−absorbance of negative group)×100%. (5)

grass carp CIK cells = assay: Cytotoxicity test (MTT method); format: cell-based; details: final concentration 128 μM, 24 hours
Text: as §1, §2, §3, §4, §5, §6

human HEK293T cells = assay: Cytotoxicity test (MTT method); format: cell-based; details: 24 h, 128 µM
Text: as §1, §2, §3, §4, §5, §6

[2] = Toxicity of the drug to mice without bacterial infection (safe dose); format: in vivo; details: intraperitoneal injection, no bacterial infection
Method: First, an appropriate drug treatment dose is selected through pre-tests, and an appropriate drug dose concentration is found through 3-5 different drug dose concentration groups. In addition, the toxicity of the drug to mice should be tested so as to preliminarily evaluate the safety of the drug, that is, in the absence of bacterial infection, only the mice are intraperitoneally injected with the interferon-derived polypeptide drug, and the safe dose range is <200 μg/head.

[3] = system: red blood cells of grass carp; assay: Hemolytic toxicity test on erythrocytes; format: cell-based; details: concentration 64 μM or above
Method: (§7) (1) 1 ml of blood of fresh grass carp and BALB/c mice are collected respectively and stored with heparin sodium for anticoagulation.
(§8) (2) The fresh plasma solutions obtained in step (1) are centrifuged under 1000 g for 5 minutes, the supernatant is discarded, and red blood cells are collected.
(§9) (3) The collected red blood cells are washed 3 times with PBS buffer, centrifuged under 1000 g for 5 minutes each time, and finally resuspended in 5 ml of PBS buffer.
(§10) 50 μl PBS+50 μl red blood cell suspension is used as a negative control, and 50 μl of red blood cell suspension+50 μl of 0.2% Triton X-100 is used as a positive control.
(§11) (6) After 1 hour, the 96-well plate is taken out, and centrifuged under 1000 g for 5 minutes at 4° C.
(§12) (7) The supernatant of the above-mentioned centrifuged solutions is taken and placed on a clean 96-well plate again, and then absorbance is measured at 570 nm with a microplate reader.
(§13) (8) The average values of all the groups are compared and analyzed. The test is repeated three times. Calculation formula: Hemolysis rate=(absorbance of experimental group−absorbance of negative group)/(absorbance of positive group−absorbance of negative group)×100%. (9)

red blood cells of mice = assay: Hemolytic toxicity test on erythrocytes; format: cell-based, BALB/c mice; details: concentration 64 μM or above
Method: as §7, §8, §9, §10, §11, §12, §13

[4] = human, HEK293T cells, Survival rate of cells

Compound | viability at 24 h, 8 µM ([1]; CIK cells, grass carp CIK, final concentration 8 μM, read-out: Survival rate of cells) [%] | viability at 24 h, 16 µM ([1]; CIK cells, grass carp CIK, final concentration 16 μM, read-out: Survival rate of cells) [%] | viability at 24 h, 32 µM ([1]; CIK cells, grass carp CIK, final concentration 32 μM, read-out: Survival rate of cells) [%] | viability at 24 h, 64 µM ([1]; CIK cells, grass carp CIK, final concentration 64 μM, read-out: Survival rate of cells) [%] | viability at 24 h, 128 µM ([1]; CIK cells, grass carp CIK, final concentration 128 μM, read-out: Survival rate of cells) [%] | viability at 24 h, 8 µM [1, 4] [%] | viability at 24 h, 16 µM [1, 4] [%] | viability at 24 h, 32 µM [1, 4] [%] | viability at 24 h, 64 µM [1, 4] [%] | viability at 24 h, 128 µM [1, 4] [%] | Survival rate of cells (grass carp CIK cells) [%] | Survival rate of cells (human HEK293T cells) [%] | safe dose range [2] [μg/head] | hemolytic toxicity (in words) [3] | hemolytic toxicity (in words) (red blood cells of mice)
SYEKKINRHFKILKKNLKKK [Interferon-derived polypeptide] | 95.4 | 96.7 | 95.2 | 87 | > 80 | 98.3 | 97.2 | 93 | 89 | > 80 | 81 | 83 | < 200 |  | 
CC[C@H](C)[C@H](NC(=O)[C@H](CCCCN)NC(=O)[C@H](CCC(=O)O)NC(=O)[C@H](CCCCN)NC(=O)[C@H](CO)NC(=O)[C@H](CCCCN)NC(=O)[C@H](CCCNC(=N)N)NC(=O)[C@H](Cc1ccccc1)NC(=O)[C@H](Cc1ccccc1)NC(=O)[C@H](CC(=O)O)NC(=O)CNC(=O)[C@H](CC(C)C)NC(=O)[C@@H](N)CC(C)C)C(=O)NCC(=O)N[C@@H](CCCCN)C(=O)N[C@@H](CCC(=O)O)C(=O)N[C@@H](Cc1ccccc1)C(=O)N[C@@H](CCCCN)C(=O)N[C@@H](CCCNC(=N)N)C(=O)N[C@H](C(=O)N[C@H](C(=O)N[C@@H](CCC(N)=O)C(=O)N[C@@H](CCCNC(=N)N)C(=O)N[C@H](C(=O)N[C@@H](CCCCN)C(=O)N[C@@H](CC(=O)O)C(=O)N[C@@H](Cc1ccccc1)C(=O)N[C@@H](CC(C)C)C(=O)N[C@@H](CCCNC(=N)N)C(=O)N[C@@H](CC(N)=O)C(=O)N[C@@H](CC(C)C)C(=O)N[C@H](C(=O)N1CCC[C@H]1C(=O)N[C@@H](CCCNC(=N)N)C(=O)N[C@H](C(=O)N[C@@H](CCC(=O)O)C(=O)N[C@@H](CO)C(=O)O)[C@@H](C)O)C(C)C)[C@@H](C)CC)C(C)C)[C@@H](C)CC [LL37] |  |  |  |  |  |  |  |  |  |  | 15 |  |  | obvious | obvious

Reference: US10577404B2, “Polypeptide derivatives from grass carp interferon and application thereof” (priority 2018, dated 2020)
